From patent US20240350525A1, “HEART DISEASE AGENT AND METHOD FOR IMPROVING HEART DISEASE” (MIRAILAB BIOSCIENCE INC., priority 2021, published 2024) come the findings set out here.

In this assay the test system is subject. Description: Electrocardiography before and after oral ingestion of NMN capsules in a subject with suspected ventricular extrasystole. It counts as in vivo, human. Here is the method:
On Jun. 4, 2020, electrocardiography was performed on a subject by placing the subject in the supine position, putting clips on the extremities, attaching electrodes to the chest, and using an electrocardiograph (product name: Electrocardiograph ECG-2250, manufactured by NIHON KOHDEN CORPORATION) with leads I to III and leads aVR, aVL, and aVF. The paper feed speed of the electrocardiogram was set to 25 mm/second, and the vertical axis was set to 1 mV=10 mm for recording. The result is indicated in the electrocardiogram of FIG. 2 (horizontal axis: time (second), vertical axis: electric potential (mV)).
Afterwards, from Oct. 18, 2020, the subject was caused to ingest (take orally) one capsule per day of NMN pure 3000 plus (NMN 50 mg/capsule, manufactured by MIRAILAB BIOSCIENCE Inc., trade name) for 47 consecutive days.
Then, on Jan. 4, 2021, electrocardiography was performed again on the above-described subject similarly as described above. The result is indicated in the electrocardiogram of FIG. 3 (horizontal axis: time (second), vertical axis: electric potential (mV)). […] From this, it was confirmed that NMN ingestion was effective for electrocardiogram abnormalities and arrhythmias.

In turn, `NC(=O)c1ccc[n+]([C@@H]2O[C@H](COP(=O)([O-])O)[C@@H](O)[C@H]2O)c1` [NMN, nicotinamide mononucleotide] registered a heart rate (after ingestion of one capsule per day (NMN 50 mg/capsule) for 47 consecutive days, 69 bpm before ingestion) of 57 bpm. In addition, under “one subject, one capsule per day (NMN 50 mg/capsule) orally for 47 consecutive days, ECG on Jan. 4, 2021”, the electrocardiogram waveforms result is reported as “appeared with regularity in order”. Further, for the setting “one subject, one capsule per day (NMN 50 mg/capsule) orally for 47 consecutive days, ECG on Jan. 4, 2021, complexes were recognized before ingestion”, the “QRS complexes having a wide and odd-shaped waveform” value was “not recognized”. The “effect on electrocardiogram abnormalities and arrhythmias” value (overall conclusion, one subject, NMN 50 mg/day orally for 47 consecutive days) is reported as “effective”.
